Here are results for 35 compounds from patent publication US6242494A, “Substituted β-amino acid inhibitors of methionine aminopeptidase-2” (Abbott Laboratories, priority 1999, dated 2001).

Where a name gives a salt, the structure may show the parent alone. Read-outs that look alike come from different tables or passages of the source.

The test has as its target T1, methionine aminopeptidase-2 (MetAP2) (Homo sapiens, UniProt P50579).
T1 construct: made in house; host or cells: insect cells, baculovirus system (secreted, purified from culture supernatant)
Description: Inhibition of MetAP2 enzyme activity (96-well, Met-Ala-Ser substrate, L-amino acid oxidase/peroxidase/ortho-dianisidine, 450 nm). The note with it: pH 7.4, Met-Ala-Ser substrate, 20 minutes. Type of test: biochemical.

The mark [1] stands for this setting: IC50, recombinant MetAP2 4 μg/mL.

T1 sequence (P50579 whole entry): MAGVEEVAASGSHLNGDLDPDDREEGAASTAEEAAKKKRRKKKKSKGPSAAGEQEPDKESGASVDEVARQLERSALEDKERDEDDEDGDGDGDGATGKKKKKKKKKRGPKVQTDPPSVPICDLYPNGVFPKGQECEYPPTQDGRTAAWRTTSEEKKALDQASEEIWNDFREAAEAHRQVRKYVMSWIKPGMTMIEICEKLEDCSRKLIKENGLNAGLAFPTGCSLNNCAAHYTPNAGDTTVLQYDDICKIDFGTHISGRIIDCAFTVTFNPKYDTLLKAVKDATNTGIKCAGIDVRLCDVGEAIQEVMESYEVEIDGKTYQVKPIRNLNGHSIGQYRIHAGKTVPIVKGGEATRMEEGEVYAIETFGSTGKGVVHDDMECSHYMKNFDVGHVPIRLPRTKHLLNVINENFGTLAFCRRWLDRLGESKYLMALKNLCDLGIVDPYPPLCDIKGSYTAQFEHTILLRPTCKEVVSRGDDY

With `N[C@H](CC1CCCCC1)C(O)C(=O)NC1CCCC1` (mixture of isomers) [Example 207, (2RS,3R)-3-amino-4-cyclohexyl-N-cyclopentyl-2-hydroxybutanamide Hydrochloride], under setting [1], the 50% inhibitory concentration (IC50) amounted to 4100 nM.

Turning to `N[C@H](CC1CCCCC1)C(O)C(=O)NC1CCC1` (mixture of isomers) [Example 208, (2RS,3R)-3-amino-N-cyclobutyl-4-cyclohexyl-2-hydroxybutanamide Hydrochloride], under setting [1], the IC50 turned out to be 2700 nM.

`CC(CCc1ccccc1)NC(=O)C(O)[C@H](N)CC1CCCCC1` (mixture of isomers) [Example 209, (2RS,3R)-3-amino-4-cyclohexyl-2-hydroxy-N-(1-methyl-3-phenylpropyl)butanamide Hydrochloride]: under setting [1], the half-inhibitory concentration (IC50) was 14000 nM.

In the case of `CC(Cc1cccc(C(F)(F)F)c1)NC(=O)C(O)[C@H](N)CC1CCCCC1` (mixture of isomers) [Example 210, (2RS,3R)-3-amino-4-cyclohexyl-2-hydroxy-N-(1-methyl-2-(3-(trifluoromethyl)phenyl)ethyl)butanamide Hydrochloride], the IC50 under setting [1] turned out to be 2300 nM.

As to `CCCCCC(C)NC(=O)C(O)[C@H](N)CC1CCCCC1` (mixture of isomers) [Example 212, (2RS,3R)-3-amino-4-cyclohexyl-2-hydroxy-N-(1-methylhexyl)butanamide Hydrochloride], under setting [1], the IC50 turned out to be 1700 nM.

`CC(C)OCCCNC(=O)C(O)[C@H](N)CC1CCCCC1` (mixture of isomers) [Example 213, (2RS,3R)-3-amino-4-cyclohexyl-2-hydroxy-N-(3-isopropoxypropyl)butanamide Hydrochloride]: the IC50 under setting [1] was determined as 2600 nM.

With `CC(C)COCCCNC(=O)C(O)[C@H](N)CC1CCCCC1` (mixture of isomers) [Example 214, (2RS,3R)-3-amino-4-cyclohexyl-2-hydroxy-N-(3-isobutoxypropyl)butanamide Hydrochloride], the 50% inhibitory concentration (IC50) under setting [1] was determined as 2800 nM.

Consider `N[C@H](CC1CCCCC1)C(O)C(=O)Nc1ccc(N2CCOCC2)cc1` (mixture of isomers) [Example 215, (2RS,3R)-3-amino-4-cyclohexyl-2-hydroxy-N-(4-(4-morpholinyl)phenyl)butanamide Hydrochloride], for which the IC50 under setting [1] is 1300 nM.

On to `N[C@H](CC1CCCCC1)C(O)C(=O)NCCC(c1ccccc1)c1ccccc1` (mixture of isomers) [Example 216, (2RS,3R)-3-amino-4-cyclohexyl-N-(3,3-diphenylpropyl)-2-hydroxybutanamide Hydrochloride], for which, under setting [1], the concentration for half-maximal inhibition (IC50) is 1800 nM.

Regarding `CC(C)CCC(C)NC(=O)C(O)[C@H](N)CC1CCCCC1` (mixture of isomers) [Example 217, (2RS,3R)-3-amino-4-cyclohexyl-N-(1,4-dimethylpentyl)-2-hydroxybutanamide Hydrochloride], under setting [1], the IC50 turned out to be 1800 nM.

As to `C[C@@H](c1cccc2ccccc12)N(C)C(=O)C(O)[C@H](N)CC1CCCCC1` (mixture of isomers) [Example 219, (2RS,3R)-3-amino-4-cyclohexyl-2-hydroxy-N-methyl-N-((1S)-1-(1-naphthyl)ethyl)butanamide Hydrochloride], the IC50 under setting [1] was 1800 nM.

For the compound `COc1ccc(C(F)(F)F)cc1NC(=O)C(O)[C@H](N)CC1CCCCC1` (mixture of isomers) [Example 220, (2RS,3R)-3-amino-4-cyclohexyl-2-hydroxy-N-(2-methoxy-5-(trifluoromethyl)phenyl)butanamide Hydrochloride], under setting [1], the IC50 came out at 5500 nM.

With `COc1ccc(-c2ccccc2)cc1NC(=O)C(O)[C@H](N)CC1CCCCC1` (mixture of isomers) [Example 221, (2RS,3R)-3-amino-4-cyclohexyl-2-hydroxy-N-(4-methoxy(1,1'-biphenyl)-3-yl)butanamide Hydrochloride], under setting [1], the IC50 is 5400 nM.

As for `N[C@H](CC1CCCCC1)C(O)C(=O)Nc1ccc2c(c1)OCCO2` (mixture of isomers) [Example 222, (2RS,3R)-3-amino-4-cyclohexyl-N-(2,3-dihydro-1,4-benzodioxin-6-yl)-2-hydroxybutanamide Hydrochloride], under setting [1], the IC50 worked out at 200 nM.

As for `N[C@H](CC1CCCCC1)C(O)C(=O)Nc1cccc(OCc2ccccc2)c1` (mixture of isomers) [Example 223, (2RS,3R)-3-amino-N-(3-(benzyloxy)phenyl)-4-cyclohexyl-2-hydroxybutanamide Hydrochloride], under setting [1], the IC50 is 880 nM.

On to `CCOc1cccc(NC(=O)C(O)[C@H](N)CC2CCCCC2)c1` (mixture of isomers) [Example 224, (2RS,3R)-3-amino-4-cyclohexyl-N-(3-ethoxyphenyl)-2-hydroxybutanamide Hydrochloride], for which the IC50 under setting [1] was 430 nM.

For `COc1cc(NC(=O)C(O)[C@H](N)CC2CCCCC2)cc(OC)c1OC` (mixture of isomers) [Example 225, (2RS,3R)-3-amino-4-cyclohexyl-2-hydroxy-N-(3,4,5-trimethoxyphenyl)butanamide Hydrochloride], the IC50 under setting [1] was found to be 350 nM.

Regarding `CC(Cc1ccccc1F)NC(=O)C(O)[C@H](N)CC1CCCCC1` (mixture of isomers) [Example 226, (2RS,3R)-3-amino-4-cyclohexyl-N-(2-(2-fluorophenyl)-1-methylethyl)-2-hydroxybutanamide Hydrochloride], the concentration for half-maximal inhibition (IC50) under setting [1] is 970 nM.

Regarding `CC(C)(Cc1ccc(F)cc1)NC(=O)C(O)[C@H](N)CC1CCCCC1` (mixture of isomers) [Example 227, (2RS,3R)-3-amino-4-cyclohexyl-N-(2-(4-fluorophenyl)-1,1-dimethylethyl)-2-hydroxybutanamide Hydrochloride], the IC50 under setting [1] was found to be 880 nM.

For the compound `N[C@H](CC1CCCCC1)C(O)C(=O)NC1CCc2ccccc21` (mixture of isomers) [Example 228, (2RS,3R)-3-amino-4-cyclohexyl-N-(2,3-dihydro-1H-inden-1-yl)-2-hydroxybutanamide Hydrochloride], the IC50 under setting [1] turned out to be 930 nM.

As to `N[C@H](CC1CCCCC1)C(O)C(=O)N[C@H]1C[C@@H]1c1ccccc1` (mixture of isomers) [Example 229, (2RS,3R)-3-amino-4-cyclohexyl-2-hydroxy-N-((1S,2R)-2-phenylcyclopropyl)butanamide Hydrochloride], the IC50 under setting [1] is 1200 nM.

For the compound `CC(C)(C)CC(C)(C)NC(=O)C(O)[C@H](N)CC1CCCCC1` (mixture of isomers) [Example 230, (2RS,3R)-3-amino-4-cyclohexyl-2-hydroxy-N-(1,1,3,3-tetramethylbutyl)butanamide Hydrochloride], the IC50 under setting [1] was 34000 nM.

In the case of `CC(C)CC(C)NC(=O)C(O)[C@H](N)CC1CCCCC1` (mixture of isomers) [Example 231, (2RS,3R)-3-amino-4-cyclohexyl-N-(1,3-dimethylbutyl)-2-hydroxybutanamide Hydrochloride], the IC50 under setting [1] came out at 2500 nM.

For `CC(NC(=O)C(O)[C@H](N)CC1CCCCC1)C12CC3CC(CC(C3)C1)C2` (mixture of isomers) [Example 233, (2RS,3R)-N-(1-(1-adamantyl)ethyl)-3-amino-4-cyclohexyl-2-hydroxybutanamide Hydrochloride], the IC50 under setting [1] is 2700 nM.

With `N[C@H](CC1CCCCC1)C(O)C(=O)NCc1cccc(OC(F)(F)F)c1` (mixture of isomers) [Example 236, (2RS,3R)-3-amino-4-cyclohexyl-2-hydroxy-N-(3-(trifluoromethoxy)benzyl)butanamide Hydrochloride], under setting [1], the IC50 came to 1900 nM.

On to `N[C@H](CC1CCCCC1)C(O)C(=O)NCc1cc(C(F)(F)F)cc(C(F)(F)F)c1` (mixture of isomers) [Example 237, (2RS,3R)-3-amino-N-(3,5-bis(trifluoromethyl)benzyl)-4-cyclohexyl-2-hydroxybutanamide Hydrochloride], for which the IC50 under setting [1] came out at 5100 nM.

For `N[C@H](CC1CCCCC1)C(O)C(=O)NCc1ccccc1C(F)(F)F` (mixture of isomers) [Example 238, (2RS,3R)-3-amino-4-cyclohexyl-2-hydroxy-N-(2-(trifluoromethyl)benzyl)butanamide], the IC50 under setting [1] was 2700 nM.

In the case of `CCSC(C)[C@H](NC(=O)OC(C)(C)C)C(O)C(=O)NC(=O)CCCc1ccccc1` (mixture of isomers) [Example 37, (2RS,3R)-N-((phenylbutyryl)-3-tert-butoxycarbonylamino-2-hydroxy-4-ethylthio)pentanamide], the IC50 (recombinant MetAP2 4 μg/mL, read-out: IC50) came out at 16000 nM.

On to `CCNC(=O)[C@H](C)NC(=O)C(O)[C@@H](N)CCSC` (stereo partly drawn) [Example 2, (2RS,3S,1'S)-N-((1-Ethylcarboxamido)ethyl)-3-amino-2-hydroxy-5-(methylthio)pentanamide hydrochloride], for which the IC50 under setting [1] worked out at 47000 nM.

For `CCNC(=O)[C@H](C)NC(=O)C(O)[C@H](N)CCSC` (stereo partly drawn) [Example 3, (2RS,3R,1'S)-N-((1-Ethylcarboxamido)ethyl)-3-amino-2-hydroxy-5-(methylthio)pentanamide hydrochloride], the IC50 under setting [1] is 10000 nM.

In the case of `CSCC[C@@H](N)C(O)C(=O)NCCc1ccccc1` (stereo partly drawn) [Example 5, (2RS,3R)-N-((2-phenylethyl)-3-amino-2-hydroxy-5-(methylthio)pentanamide hydrochloride], the IC50 under setting [1] turned out to be 2600 nM.

In the case of `CSCC[C@@H](N)C(O)C(=O)NCCCc1ccccc1` (stereo partly drawn) [Example 6, (2RS,3R)-N-((3-phenylpropyl)-3-amino-2-hydroxy-5-(methylthio)pentanamide hydrochloride], the IC50 under setting [1] was found to be 3000 nM.

As for `CSCC[C@@H](N)C(O)C(=O)NCCc1ccc(S(N)(=O)=O)cc1` (stereo partly drawn) [Example 9, (2RS,3R)-N-(2-(4-sulfonamidophenyl)ethyl)-3-amino-2-hydroxy-5-(methylthio)pentanamide hydrochloride], under setting [1], the half-inhibitory concentration (IC50) is 2300 nM.

As for `CSCC[C@@H](N)C(O)C(=O)NCCc1ccccn1` (stereo partly drawn) [Example 10, (2RS,3R)-N-(2-(2-pyridyl)ethyl)-3-amino-2-hydroxy-5-(methylthio)pentanamidedihydrochloride], the IC50 under setting [1] was found to be 3600 nM.

As for `CCSCC[C@@H](N)C(O)C(=O)NCCCCc1ccccc1` (stereo partly drawn) [Example 13, (2RS,3R)-N-(4-phenyl)butyl)-3-amino-2-hydroxy-5-(ethylthio)pentanamide hydrochloride], under setting [1], the IC50 came out at 1100 nM.

What is called IC50 is the concentration at which inhibition is half-maximal.
